# Legend:
# Test in all cases: relative viability (nuclei count vs DMSO), 5 days (fraction); higher = more cells survive
# A-427 = system: A-427
# Procedure, shortened: (§1)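 Lung cancer cell lines in 1536-well plates got either a single drug or a fixed anchor-drug dose together with five library-drug doses (not always all listed) in √10 steps, by pin tool, on the day after seeding. Nuclei were counted after 5 days, and relative viability is the treated-to-vehicle ratio of nuclei counts. Values are medians of duplicate plates.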
# NCI-H1944 = system: NCI-H1944
# Procedure, shortened: as §1
# NCI-H727 = system: NCI-H727
# Procedure, shortened: as §1
# NCI-H2009 = system: NCI-H2009
# Procedure, shortened: as §1
# NCI-H1792 = system: NCI-H1792
# Procedure, shortened: as §1
# NCI-H1993 = system: NCI-H1993
# Procedure, shortened: as §1
# SK-MES-1 = system: SK-MES-1
# Procedure, shortened: as §1
# NCI-H2170 = system: NCI-H2170
# Procedure, shortened: as §1
# EMC-BAC-2 = system: EMC-BAC-2
# Procedure, shortened: as §1
# LK-2 = system: LK-2
# Procedure, shortened: as §1
# HARA = system: HARA
# Procedure, shortened: as §1
# NCI-H322M = system: NCI-H322M
# Procedure, shortened: as §1
# NCI-H2228 = system: NCI-H2228
# Procedure, shortened: as §1
# SW 1573 = system: SW 1573
# Procedure, shortened: as §1
# NCI-H3122 = system: NCI-H3122
# Procedure, shortened: as §1
# HOP-62 = system: HOP-62
# Procedure, shortened: as §1
# PC-3 [JPC-3] = system: PC-3 [JPC-3]
# Procedure, shortened: as §1
# LXF-289 = system: LXF-289
# Procedure, shortened: as §1
# NCI-H596 = system: NCI-H596
# Procedure, shortened: as §1
smiles,measurement,setting,value
O=c1cc(-c2cccc3c2Sc2ccccc2S3)oc(N2CCOCC2)c1 + CC1(C)CCC(c2ccc(Cl)cc2)=C(CN2CCN(c3ccc(C(=O)NS(=O)(=O)c4ccc(N[C@H](CCN5CCOCC5)CSc5ccccc5)c(S(=O)(=O)C(F)(F)F)c4)cc3)CC2)C1 [Navitoclax] (partner 0.5 µM),relative viability,A-427; first compound 0.08 µM,0.962
same,relative viability,A-427; first compound 0.253 µM,0.909
same,relative viability,A-427; first compound 0.8 µM,1.07
same,relative viability,A-427; first compound 2.53 µM,0.906
same,relative viability,A-427; first compound 8 µM,0.934
same,relative viability,NCI-H1944; first compound 0.08 µM,1
same,relative viability,NCI-H1944; first compound 0.253 µM,1.11
same,relative viability,NCI-H1944; first compound 0.8 µM,1.06
same,relative viability,NCI-H1944; first compound 8 µM,1.16
same,relative viability,NCI-H727; first compound 0.253 µM,0.356
same,relative viability,NCI-H727; first compound 2.53 µM,0.369
same,relative viability,NCI-H727; first compound 8 µM,0.494
same,relative viability,NCI-H2009; first compound 0.08 µM,1.22
same,relative viability,NCI-H2009; first compound 0.253 µM,1.2
same,relative viability,NCI-H2009; first compound 0.8 µM,1.21
same,relative viability,NCI-H2009; first compound 2.53 µM,1.05
same,relative viability,NCI-H2009; first compound 8 µM,1.11
same,relative viability,NCI-H1792; first compound 0.253 µM,0.761
same,relative viability,NCI-H1792; first compound 0.8 µM,0.471
same,relative viability,NCI-H1792; first compound 2.53 µM,0.555
same,relative viability,NCI-H1792; first compound 8 µM,0.689
same,relative viability,NCI-H1993; first compound 0.08 µM,1.09
same,relative viability,NCI-H1993; first compound 0.253 µM,0.989
same,relative viability,NCI-H1993; first compound 0.8 µM,0.768
same,relative viability,NCI-H1993; first compound 2.53 µM,0.824
same,relative viability,NCI-H1993; first compound 8 µM,0.871
same,relative viability,SK-MES-1; first compound 0.08 µM,1.1
same,relative viability,SK-MES-1; first compound 0.253 µM,1.54
same,relative viability,SK-MES-1; first compound 0.8 µM,1.2
same,relative viability,SK-MES-1; first compound 2.53 µM,1.17
same,relative viability,SK-MES-1; first compound 8 µM,1.24
same,relative viability,NCI-H2170; first compound 0.08 µM,0.693
same,relative viability,NCI-H2170; first compound 0.253 µM,0.749
same,relative viability,NCI-H2170; first compound 0.8 µM,0.642
same,relative viability,NCI-H2170; first compound 2.53 µM,0.55
same,relative viability,NCI-H2170; first compound 8 µM,0.519
same,relative viability,EMC-BAC-2; first compound 0.08 µM,1.3
same,relative viability,EMC-BAC-2; first compound 0.253 µM,1.41
same,relative viability,EMC-BAC-2; first compound 0.8 µM,1.37
same,relative viability,EMC-BAC-2; first compound 2.53 µM,1.2
same,relative viability,EMC-BAC-2; first compound 8 µM,1.35
same,relative viability,LK-2; first compound 0.08 µM,0.861
same,relative viability,LK-2; first compound 0.253 µM,1.03
same,relative viability,LK-2; first compound 0.8 µM,0.992
same,relative viability,LK-2; first compound 2.53 µM,0.808
same,relative viability,LK-2; first compound 8 µM,1.43
same,relative viability,HARA; first compound 0.08 µM,1.16
same,relative viability,HARA; first compound 0.253 µM,1.36
same,relative viability,HARA; first compound 0.8 µM,1.01
same,relative viability,HARA; first compound 2.53 µM,1.11
same,relative viability,HARA; first compound 8 µM,1.2
same,relative viability,NCI-H322M; first compound 0.08 µM,1.2
same,relative viability,NCI-H322M; first compound 0.253 µM,1.3
same,relative viability,NCI-H322M; first compound 0.8 µM,1.15
same,relative viability,NCI-H322M; first compound 2.53 µM,1.16
same,relative viability,NCI-H322M; first compound 8 µM,1.05
same,relative viability,NCI-H2228; first compound 0.08 µM,1.17
same,relative viability,NCI-H2228; first compound 0.253 µM,0.902
same,relative viability,NCI-H2228; first compound 0.8 µM,0.818
same,relative viability,NCI-H2228; first compound 2.53 µM,0.87
same,relative viability,NCI-H2228; first compound 8 µM,0.852
same,relative viability,SW 1573; first compound 0.08 µM,0.999
same,relative viability,SW 1573; first compound 0.253 µM,1.14
same,relative viability,SW 1573; first compound 0.8 µM,1.04
same,relative viability,SW 1573; first compound 2.53 µM,1.12
same,relative viability,SW 1573; first compound 8 µM,1.17
same,relative viability,NCI-H3122; first compound 0.08 µM,1.04
same,relative viability,NCI-H3122; first compound 0.253 µM,1.01
same,relative viability,NCI-H3122; first compound 0.8 µM,1.03
same,relative viability,NCI-H3122; first compound 2.53 µM,1.02
same,relative viability,NCI-H3122; first compound 8 µM,1.03
same,relative viability,HOP-62; first compound 0.08 µM,1.09
same,relative viability,HOP-62; first compound 0.253 µM,1.43
same,relative viability,HOP-62; first compound 0.8 µM,1.21
same,relative viability,HOP-62; first compound 2.53 µM,0.902
same,relative viability,HOP-62; first compound 8 µM,1.28
same,relative viability,PC-3 [JPC-3]; first compound 0.08 µM,0.836
same,relative viability,PC-3 [JPC-3]; first compound 0.253 µM,0.779
same,relative viability,PC-3 [JPC-3]; first compound 0.8 µM,0.897
same,relative viability,PC-3 [JPC-3]; first compound 2.53 µM,0.767
same,relative viability,PC-3 [JPC-3]; first compound 8 µM,0.992
same,relative viability,LXF-289; first compound 0.08 µM,0.996
same,relative viability,LXF-289; first compound 0.253 µM,1.06
same,relative viability,LXF-289; first compound 0.8 µM,1.03
same,relative viability,LXF-289; first compound 2.53 µM,0.951
same,relative viability,LXF-289; first compound 8 µM,1
same,relative viability,NCI-H596; first compound 0.08 µM,0.843
same,relative viability,NCI-H596; first compound 0.253 µM,1.3
same,relative viability,NCI-H596; first compound 0.8 µM,1.09
same,relative viability,NCI-H596; first compound 2.53 µM,1.09
same,relative viability,NCI-H596; first compound 8 µM,1.14
